In patent US10604512B2, “3-(1H-indol-2-yl)-1H-indazoles and therapeutic uses thereof” (Samumed, LLC, priority 2015, dated 2020):

How the values were obtained:
IL-6 = assay: Inhibition of IL-6 in LPS-stimulated THP-1 human monocyte cells (HTRF); assay type: cell-based; conditions: for EC50: IL-6 inhibition, LPS-stimulated THP-1 cells, HTRF; for inhibition at 10 µM: THP-1, printed beside >10 μM EC50, top concentration 10 μM, meaning not given, read-out: percentage in parentheses after EC50 >10
Summary of the method: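 THP-1 cells serum-reduced (1% FBS, 24 h), then 5000 cells/well preincubated 2 h with compound (10-point 1:3 series from 10 μM, 0.1% DMSO) before 500 ng/mL LPS for 22 h at 37 °C. Secreted IL-6 quantified by HTRF 665/620 ratio; DMSO-normalised duplicates fitted to four-parameter EC50; above 10 μM, % inhibition at 10 μM given.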

[1] = tested on: Wnt activity (Sp5-Luc reporter, TCF/LEF binding sites) in SW480 colon carcinoma cells; assay: Screening assay for Wnt activity: Sp5-Luc reporter gene assay in stably transduced SW480 colon carcinoma cells; assay type: cell-based; conditions: Homo sapiens; for EC50: overnight incubation, 10-point curve from 10 μM; for inhibition at 10 µM: given where EC50 >10 μM, read-out: percent inhibition at 10 μM
Summary of the method: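 SW480 cells stably transduced with a luciferase reporter driven by an Sp5 promoter of eight TCF/LEF sites were plated at 4,000 cells/well in 1% FBS medium. They were exposed overnight at 37° C to a 10-point 1:3 dilution series from 10 μM (0.1% DMSO). Luminescence was normalized to DMSO for four-parameter EC50, or percent inhibition at 10 μM.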

EC50 (IL-6) [µM]	EC50 [1] [µM]	SMILES	inhibition at 10 µM [1] [%]	inhibition at 10 µM (IL-6) [%]
4.57	0.057	CCC(=O)Nc1cncc(-c2ccc3[nH]nc(-c4cc5c(-c6cccc(F)c6)cccc5[nH]4)c3c2)c1 [Compound 1, N-(5-(3-(4-(3-Fluorophenyl)-1H-indol-2-yl)-1H-indazol-5-yl)pyridin-3-yl) propionamide]	–	–
0.058	0.275	Fc1cccc(-c2cccc3[nH]c(-c4n[nH]c5ccc(-c6cccnc6)cc45)cc23)c1 [Compound 4, 3-(4-(3-Fluorophenyl)-1H-indol-2-yl)-5-(pyridin-3-yl)-1H-indazole]	–	–
0.036	> 10	CN(C)Cc1cncc(-c2ccc3[nH]nc(-c4cc5c(-c6cccc(F)c6)cccc5[nH]4)c3c2)c1 [Compound 13, 1-(5-(3-(4-(3-Fluorophenyl)-1H-indol-2-yl)-1H-indazol-5-yl)pyridin-3-yl)-N,N-dimethylmethanamine]	22.5	–
> 10	0.125	CCCC(=O)Nc1cncc(-c2ccc3[nH]nc(-c4cc5c(-c6cccc(F)c6)cccc5[nH]4)c3c2)c1 [Compound 17, N-(5-(3-(4-(3-Fluorophenyl)-1H-indol-2-yl)-1H-indazol-5-yl)pyridin-3-yl) butyramide]	–	24.7
> 10	0.1	O=C(Nc1cncc(-c2ccc3[nH]nc(-c4cc5c(-c6cccc(F)c6)cccc5[nH]4)c3c2)c1)C1CC1 [Compound 20, N-(5-(3-(4-(3-Fluorophenyl)-1H-indol-2-yl)-1H-indazol-5-yl)pyridin-3-yl) cyclopropanecarboxamide]	–	44.7
> 10	0.595	O=C(Nc1cncc(-c2ccc3[nH]nc(-c4cc5c(-c6cccc(F)c6)cccc5[nH]4)c3c2)c1)C1CCCCC1 [Compound 23, N-(5-(3-(4-(3-Fluorophenyl)-1H-indol-2-yl)-1H-indazol-5-yl)pyridin-3-yl) cyclohexanecarboxamide]	–	34.2
0.102	0.44	Fc1cccc(-c2cccc3[nH]c(-c4n[nH]c5ccc(-c6ccccn6)cc45)cc23)c1 [Compound 28, 3-(4-(3-Fluorophenyl)-1H-indol-2-yl)-5-(pyridin-2-yl)-1H-indazole]	–	–
> 10	0.42	CC(C)CC(=O)Nc1cncc(-c2ccc3[nH]nc(-c4cc5c(-c6ccc(F)cc6)cccc5[nH]4)c3c2)c1 [Compound 30, N-(5-(3-(4-(4-Fluorophenyl)-1H-indol-2-yl)-1H-indazol-5-yl)pyridin-3-yl)-3-methylbutanamide]	–	27.9
0.277	0.655	CC(C)(C)C(=O)Nc1cncc(-c2ccc3[nH]nc(-c4cc5c(-c6ccc(F)cc6)cccc5[nH]4)c3c2)c1 [Compound 36, N-(5-(3-(4-(4-Fluorophenyl)-1H-indol-2-yl)-1H-indazol-5-yl)pyridin-3-yl) pivalamide]	–	–
> 10	0.53	O=C(Nc1cncc(-c2ccc3[nH]nc(-c4cc5c(-c6ccc(F)cc6)cccc5[nH]4)c3c2)c1)c1ccccc1 [Compound 39, N-(5-(3-(4-(4-Fluorophenyl)-1H-indol-2-yl)-1H-indazol-5-yl)pyridin-3-yl) benzamide]	–	48.3
> 10	0.165	CN(C)Cc1cncc(-c2ccc3[nH]nc(-c4cc5c(-c6ccc(F)cc6)cccc5[nH]4)c3c2)c1 [Compound 41, 1-(5-(3-(4-(4-Fluorophenyl)-1H-indol-2-yl)-1H-indazol-5-yl)pyridin-3-yl)-N,N-dimethylmethanamine]	–	22.9
> 10	0.845	Fc1ccc(-c2cccc3[nH]c(-c4n[nH]c5ccc(-c6cncc(CN7CCCC7)c6)cc45)cc23)cc1 [Compound 42, 3-(4-(4-Fluorophenyl)-1H-indol-2-yl)-5-(5-(pyrrolidin-1-ylmethyl)pyridin-3-yl)-1H-indazole]	–	47.8
> 10	1.15	CC(C)(C)CC(=O)Nc1cncc(-c2ccc3[nH]nc(-c4cc5c(-c6ccc(F)cc6)cccc5[nH]4)c3c2)c1 [Compound 44, N-(5-(3-(4-(4-Fluorophenyl)-1H-indol-2-yl)-1H-indazol-5-yl)pyridin-3-yl)-3,3-dimethylbutanamide]	–	47.9
> 10	0.475	CCCC(=O)Nc1cncc(-c2ccc3[nH]nc(-c4cc5c(-c6ccc(F)cc6)cccc5[nH]4)c3c2)c1 [Compound 45, N-(5-(3-(4-(4-Fluorophenyl)-1H-indol-2-yl)-1H-indazol-5-yl)pyridin-3-yl)butyramide]	–	44.6
0.488	1.78	Fc1ccc(-c2cccc3[nH]c(-c4n[nH]c5ccc(-c6cncnc6)cc45)cc23)cc1 [Compound 55, 3-(4-(4-Fluorophenyl)-1H-indol-2-yl)-5-(pyrimidin-5-yl)-1H-indazole]	–	–
3.46	0.053	Nc1cncc(-c2ccc3[nH]nc(-c4cc5c(-c6ccccc6F)cccc5[nH]4)c3c2)c1 [Compound 59, 5-(3-(4-(2-Fluorophenyl)-1H-indol-2-yl)-1H-indazol-5-yl)pyridin-3-amine]	–	–
9.93	4.18	CCNCc1cncc(-c2ccc3[nH]nc(-c4cc5c(-c6ccccc6F)cccc5[nH]4)c3c2)c1 [Compound 62, N-((5-(3-(4-(2-Fluorophenyl)-1H-indol-2-yl)-1H-indazol-5-yl)pyridin-3-yl)methyl)ethanamine]	–	–
> 10	4.26	CC(C)(C)CC(=O)Nc1cncc(-c2ccc3[nH]nc(-c4cc5c(-c6ccccc6F)cccc5[nH]4)c3c2)c1 [Compound 72, N-(5-(3-(4-(2-Fluorophenyl)-1H-indol-2-yl)-1H-indazol-5-yl)pyridin-3-yl)-3,3-dimethylbutanamide]	–	35.3
> 10	1.06	O=C(Nc1cncc(-c2ccc3[nH]nc(-c4cc5c(-c6ccccc6F)cccc5[nH]4)c3c2)c1)C1CCCC1 [Compound 78, N-(5-(3-(4-(2-Fluorophenyl)-1H-indol-2-yl)-1H-indazol-5-yl)pyridin-3-yl) cyclopentanecarboxamide]	–	54.1
0.204	0.065	CCC(=O)Nc1cncc(-c2ccc3[nH]nc(-c4cc5c(-c6cccnc6)cccc5[nH]4)c3c2)c1 [Compound 85, N-(5-(3-(4-(Pyridin-3-yl)-1H-indol-2-yl)-1H-indazol-5-yl)pyridin-3-yl) propionamide]	–	–
0.023	0.5	c1cncc(-c2ccc3[nH]nc(-c4cc5c(-c6cccnc6)cccc5[nH]4)c3c2)c1 [Compound 88, 5-(Pyridin-3-yl)-3-(4-(pyridin-3-yl)-1H-indol-2-yl)-1H-indazole]	–	–
0.034	0.085	CC(C)C(=O)Nc1cncc(-c2ccc3[nH]nc(-c4cc5c(-c6cccnc6)cccc5[nH]4)c3c2)c1 [Compound 93, N-(5-(3-(4-(Pyridin-3-yl)-1H-indol-2-yl)-1H-indazol-5-yl)pyridin-3-yl) isobutyramide]	–	–
> 10	5	c1cncc(-c2cccc3[nH]c(-c4n[nH]c5ccc(-c6cncc(CN7CCCCC7)c6)cc45)cc23)c1 [Compound 99, 5-(5-(Piperidin-1-ylmethyl)pyridin-3-yl)-3-(4-(pyridin-3-yl)-1H-indol-2-yl)-1H-indazole]	–	50.5
> 10	> 10	FC1(F)CCN(Cc2cncc(-c3ccc4[nH]nc(-c5cc6c(-c7cccnc7)cccc6[nH]5)c4c3)c2)C1 [Compound 110, 5-(5-((3,3-Difluoropyrrolidin-1-yl)methyl)pyridin-3-yl)-3-(4-(pyridin-3-yl)-1H-indol-2-yl)-1H-indazole]	30.1	32.2
3.06	0.99	c1cncc(-c2cccc3[nH]c(-c4n[nH]c5ccc(-c6cncnc6)cc45)cc23)c1 [Compound 111, 3-(4-(Pyridin-3-yl)-1H-indol-2-yl)-5-(pyrimidin-5-yl)-1H-indazole]	–	–
> 10	> 10	Cc1ccncc1-c1ccc2[nH]nc(-c3cc4c(-c5ccncc5)cccc4[nH]3)c2c1 [Compound 117, 5-(4-Methylpyridin-3-yl)-3-(4-(pyridin-4-yl)-1H-indol-2-yl)-1H-indazole]	19.6	38.6
0.137	1.44	CCNCc1cncc(-c2ccc3[nH]nc(-c4cc5c(-c6ccncc6)cccc5[nH]4)c3c2)c1 [Compound 118, N-((5-(3-(4-(Pyridin-4-yl)-1H-indol-2-yl)-1H-indazol-5-yl)pyridin-3-yl)methyl)ethanamine]	–	–
> 10	> 10	O=C(Cc1ccccc1)Nc1cncc(-c2ccc3[nH]nc(-c4cc5c(-c6ccncc6)cccc5[nH]4)c3c2)c1 [Compound 122, 2-Phenyl-N-(5-(3-(4-(pyridin-4-yl)-1H-indol-2-yl)-1H-indazol-5-yl)pyridin-3-yl)acetamide]	45.5	29.6
0.15	0.275	CN(C)Cc1cncc(-c2ccc3[nH]nc(-c4cc5c(-c6ccncc6)cccc5[nH]4)c3c2)c1 [Compound 125, N,N-dimethyl-1-(5-(3-(4-(Pyridin-4-yl)-1H-indol-2-yl)-1H-indazol-5-yl)pyridin-3-yl)methanamine]	–	–
